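Exposure lasted 48 hours, with cells grown in 96-well plates and compounds tested at five concentrations. At the TGI there is no net growth.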
Experiments:
Assay in all cases: NCI anticancer screen, dose series, 48 h
CCRF-CEM leukemia = system: CCRF-CEM leukemia
IGROV1 ovarian = system: IGROV1 ovarian
KM12 colon = system: KM12 colon
LOX IMVI melanoma = system: LOX IMVI melanoma
MCF7 breast = system: MCF7 breast
NCI-H460 lung = system: NCI-H460 lung
NCI/ADR-RES ovarian = system: NCI/ADR-RES ovarian
OVCAR-5 ovarian = system: OVCAR-5 ovarian
K-562 leukemia = system: K-562 leukemia
OVCAR-3 ovarian = system: OVCAR-3 ovarian
HS 578T breast = system: HS 578T breast

Row | SMILES | TGI (CCRF-CEM leukemia) | TGI (IGROV1 ovarian) | TGI (KM12 colon) | TGI (LOX IMVI melanoma) | TGI (MCF7 breast) | TGI (NCI-H460 lung) | TGI (NCI/ADR-RES ovarian) | TGI (OVCAR-5 ovarian) | TGI (K-562 leukemia) | TGI (OVCAR-3 ovarian) | TGI (HS 578T breast)
1 | CCOC(=O)c1ccc(NC2Oc3cc4c(cc3C(c3cc(OC)c(OC)c(OC)c3)C2C)OCO4)cc1 (configuration not stated) | > 20.3 µM | > 51 µM | 3.69 µM | 32.9 µM | > 48.5 µM | > 100 µM | 8.27 µM | > 100 µM | – | – | –
2 | C=C/C(C)=C/[C@H](C)C(=O)C[C@H](O)CC1CC(=O)NC(=O)C1 | > 100 µM | > 86.7 µM | > 100 µM | > 100 µM | > 100 µM | > 100 µM | > 100 µM | > 100 µM | > 100 µM | > 100 µM | –
3 | CC12CC3c4ccccc4CN1C3(c1ccccc1)OC2=O (configuration not stated) | > 100 µM | > 100 µM | > 100 µM | > 100 µM | – | – | > 100 µM | > 100 µM | – | – | > 100 µM
4 | O=C1Nc2ccccc2C(=O)OC(Cc2ccccc2)=Nc2ccccc21 | > 100 µM | > 100 µM | > 100 µM | > 100 µM | > 100 µM | > 100 µM | > 100 µM | > 100 µM | > 100 µM | > 100 µM | –
5 | Oc1c(OCc2nnc(CCCCCCCCc3nnc(COc4ccc5ccccc5c4O)n3Nc3ccccc3)n2Nc2ccccc2)ccc2ccccc12 | – | 31.5 µM | 19 µM | – | 68.1 µM | 20.5 µM | 42.6 µM | 28.5 µM | > 100 µM | 30.6 µM | 22.2 µM
6 | CN(C)[C@@H]1C(=O)C(C(N)=O)=C(O)[C@@]2(O)C(=O)C3=C(O)c4c(O)cccc4C[C@H]3C[C@@H]12 | 5.65 µM | 4.8 µM | 6.54 µM | – | – | 6.48 µM | – | – | 6.65 µM | – | –
7 | N#Cc1[nH]c(=O)n(-c2ccc([N+](=O)[O-])cc2)c1N | > 10 µM | > 10 µM | – | > 10 µM | – | > 10 µM | > 10 µM | > 10 µM | > 10 µM | > 10 µM | > 10 µM
8 | N#CC(c1ccc(O)cc1)N1CCN(C(C#N)c2ccc(O)cc2)CC1 (configuration not stated) | > 100 µM | > 100 µM | > 100 µM | > 100 µM | > 100 µM | – | > 100 µM | > 100 µM | > 100 µM | > 100 µM | > 100 µM
9 | CC(C)CN1CN(c2ccccc2)C2(CCN(CC(C)(c3ccc(F)cc3)C3OCCO3)CC2)C1=O (configuration not stated) | 18.1 µM | – | 15.6 µM | 5.31 µM | 13.8 µM | – | 37.4 µM | 25.7 µM | 18 µM | 22.4 µM | 16.8 µM
10 | c1ccc2[nH]c(-c3nc4ccccc4o3)nc2c1 | > 100 µM | > 100 µM | > 100 µM | > 100 µM | – | > 100 µM | – | > 100 µM | – | > 100 µM | –
11 | N#Cc1c(-c2ccco2)c2c(n(C3OC(CO)C(O)C(O)C3O)c1=S)CCCC2 (configuration not stated) | > 100 µM | > 100 µM | > 100 µM | > 100 µM | > 100 µM | > 100 µM | > 100 µM | > 100 µM | – | > 100 µM | > 100 µM
12 | C1=C2SSC3=CC=C(SSc4ccc(s4)SSC4=CC=C(SSC(=C1)S2)S4)S3 | > 100 µM | > 100 µM | > 100 µM | > 100 µM | > 100 µM | > 100 µM | > 100 µM | > 100 µM | > 100 µM | > 100 µM | –
13 | COc1cc2c(cc1OC)C(=O)N(c1ccc(O)cc1)C2 | > 100 µM | > 100 µM | – | > 100 µM | – | > 100 µM | > 100 µM | > 100 µM | > 100 µM | > 100 µM | > 100 µM
14 | Nc1cc2c(cc1[N+](=O)[O-])[nH]c1c(-c3ccccc3)nccc12 | 74.7 µM | 35.9 µM | 35.2 µM | 28.8 µM | > 64.1 µM | 39.2 µM | 41.4 µM | 98.3 µM | > 100 µM | 48.5 µM | –
15 | CC1=C/C(=C(\c2ccc(N(C)C)cc2)c2ccc([N+](C)(C)C)cc2)C=CC1=[N+](C)C | – | 26.6 µM | 16.1 µM | 17.7 µM | – | 22.4 µM | – | 69 µM | > 100 µM | 24.4 µM | –
16 | CCOC(=O)NNC(=O)NCCNC(=O)NNC(=O)OCC | > 100 µM | – | > 100 µM | > 100 µM | > 100 µM | > 100 µM | > 100 µM | > 100 µM | > 100 µM | > 100 µM | > 100 µM
17 | NCCC1(N)CCNCC1 | > 100 µM | > 100 µM | > 100 µM | – | – | > 100 µM | > 100 µM | > 100 µM | > 100 µM | – | > 100 µM
18 | Cc1ccc(-c2cc(-c3ccco3)nc(N)n2)o1 | > 100 µM | > 100 µM | > 100 µM | > 100 µM | – | > 100 µM | – | > 100 µM | > 100 µM | > 100 µM | –
19 | O=c1[nH]cnc2c1nnn2CCCn1nnc2c(=O)[nH]cnc21 | > 100 µM | > 100 µM | > 100 µM | > 100 µM | – | > 100 µM | – | > 100 µM | > 100 µM | > 100 µM | –
20 | CCCCCCCCCCCCNC(=O)NCC(OCC)OCC | > 10 µM | > 10 µM | > 10 µM | > 10 µM | > 10 µM | > 10 µM | – | > 10 µM | > 10 µM | – | > 10 µM
21 | CC1(C)CCc2c(cc3c(c2O)CCC(C)(C)O3)O1 | > 100 µM | > 100 µM | > 100 µM | – | > 100 µM | > 100 µM | > 100 µM | > 100 µM | > 100 µM | > 100 µM | > 100 µM
22 | Cc1ccc(OP2(=O)Oc3ccc4ccccc4c3CN2c2ccc(Cl)cc2)cc1C (configuration not stated) | > 100 µM | > 100 µM | > 100 µM | > 100 µM | > 100 µM | > 100 µM | > 100 µM | > 100 µM | > 100 µM | > 100 µM | –
23 | CSc1nc2c(c(N(C)C)n1)C=Nn1c(nc3ccccc31)S2 | – | > 100 µM | > 100 µM | > 100 µM | – | > 100 µM | > 100 µM | > 100 µM | > 100 µM | > 100 µM | > 100 µM
